Drawing on patent US20230338564A1, “NEODEGRADER CONJUGATES” (Orum Therapeutics, Inc., priority 2020, published 2023), this text covers IC50 for two molecules.

A value given as a limit tells only on which side of the number the result lay.

One assay concerns OCI-AML-5 cell line. Kind of assay: In vitro antiproliferation assay, General Procedure 2 (CCK-8). It counts as cell-based. The following applies: leukemia, acute myeloid leukemia. The text has this:
(§1) Cell Culture: Cell lines were obtained from the American Type Culture Collection (ATCC, Manassas, VA, USA) or Deutsche Sammlung von Mikroorganismen und Zellkulturen (DSMZ, Braunschweig, Germany) and maintained according to the culturing conditions specified by ATCC or DSMZ. Cells were thawed out and maintained in culture for at least two passages before proceeding with experimental conditions.
(§2) Cytotoxicity assays: For adherent cell lines, the cells were dissociated with enzyme-free PBS-based cell dissociation buffer (Gibco, USA) and plated on tissue culture treated 96-well flat bottom polystyrene plates (Costar, Corning, USA) at appropriate cell densities depending on doubling time of the cells. 18 hours after plating, cells were treated with test articles at appropriate concentrations starting at 100 nM and diluted in 4-fold serial dilutions. For suspension cell lines, the cells were seeded on the same day of treatment and cells were treated as described above. Adherent cells were treated for 5 days and suspension cells were treated for 3 days. Cell proliferation was assessed using the Cell Counting Kit-8 (CCK-8, Dojindo Laboratories, Japan) and measurements were obtained using the Promega GloMax Discover plate reader (Promega, USA). Data were analyzed using GraphPad Prism software (GraphPad Software, San Diego, CA). All data points were obtained from technical triplicates and the experiments were validated using three biological replicates.

A further assay has as its system SKM-1 cell line. The assay is described as above. It counts as cell-based. The following applies: leukemia, myelodysplastic syndrome; read-out: IC50 (M), SKM-1.
Description: as §1, §2

The subject of a further assay is HNT-34 cell line. The assay is described as above. The format is cell-based. The settings on record: leukemia, acute myeloid leukemia.
Description: as §1, §2

For a further assay, the system named is SKNO-1 cell line. Described as above. The settings on record: leukemia, acute myeloid leukemia. It counts as cell-based.
Description: as §1, §2

In another assay the test system is PLB-985 cell line. The assay is described as above. It counts as cell-based. The settings on record: leukemia, acute myeloid leukemia (derivative of HL-60).
Description: as §1, §2

In another assay the test system is OCI-AML-1 cell line. The description is as above. It counts as cell-based. The following applies: leukemia, acute myeloid leukemia.
Description: as §1, §2

The next assay concerns MV4-11 cell line. The description is as above. The format is cell-based. The following applies: leukemia, biphenotypic B myelomonocytic; read-out: IC50 (M), MV-4-11.
Description: as §1, §2

The next assay relates to HL-60 cell line. The assay is described as above. The settings on record: leukemia, acute promyelocytic; read-out: IC50 (M), HL-60. The format is cell-based.
Description: as §1, §2

The next assay has as its system OCI-AML-6 cell line. The description is as above. The settings on record: leukemia, acute myeloid leukemia. It counts as cell-based.
Description: as §1, §2

The next assay relates to AML-193 cell line. Described as above. It counts as cell-based. The following applies: leukemia, acute monocytic, monocyte.
Description: as §1, §2

The next assay has as its system MOLM13 cell line. The description is as above. It counts as cell-based. The following applies: leukemia, acute,myeloid,leukemia suspension; read-out: IC50 (M), Molm-13.
Description: as §1, §2

A further assay has as its system Kasumi-6 cell line. The description is as above. The format is cell-based. The following applies: leukemia, acute myeloid, myeloblast.
Description: as §1, §2

A further assay has as its system F-36P cell line. Described as above. The format is cell-based. The settings on record: leukemia, myelodysplastic syndrome.
Description: as §1, §2

The test system of a further assay is ML-2 cell line. The assay is described as above. The following applies: leukemia, acute myelomonocytic leukemia; read-out: IC50 (M), ML-2. It counts as cell-based.
Description: as §1, §2

In another assay the test system is OCI-AML4 cell line. Described as above. The format is cell-based. The following applies: leukemia, acute myeloid leukemia; read-out: IC50 (M), OCI-AML-4.
Description: as §1, §2

Another assay concerns OCI-AML2 cell line. The assay is described as above. The following applies: leukemia, acute myeloid leukemia; read-out: IC50 (M), OCI-AML-2. The format is cell-based.
Description: as §1, §2

For another assay, the system named is Kopn-8 cell line. The assay is described as above. It counts as cell-based. The following applies: leukemia, B cell precursor leukemia.
Description: as §1, §2

The subject of assay [1] is HL-60 (acute myeloid leukemia) cell line. As to the kind of experiment: In vitro antiproliferation assay, General Procedure 1 (WST-8). The format is cell-based. The settings on record: AML; conjugates DAR 8, Mylotarg DAR not given. The protocol: The ability of neoDegrader conjugates to inhibit cell growth was measured using in vitro anti-proliferation assay. […] Conjugates were diluted in complete cell growth medium using 4-fold serial dilutions and 100 µL was added per well. […] Viability of remaining cells was determined by colorimetric WST-8 assay (Dojindo Molecular Technologies, Inc., Rockville, MD, US). WST-8 was added to 10% of the final volume and plates were incubated at 37° C. in a humidified 5% CO2 incubator for 2-4 hours. Plates were analyzed by measuring the absorbance at 450 nm (A450) in a multi-well plate reader. Background A450 absorbance of wells with media and WST-8 only was subtracted from all values. The percent viability was calculated by dividing each treated sample value by the average value of wells with untreated cells. The percent viability value was plotted against the test sample concentration in a semi-log plot for each treatment. IC50 values were calculated automatically.

Another assay has as its system EOL-1 cell line. Kind of assay: In vitro antiproliferation assay, General Procedure 2 (CCK-8). The format is cell-based, human. The following applies: Leukemia, Human eosinophilic leukaemia; read-out: IC50 (M), EoL-1.
Description: as §1, §2

The test system of the next assay is RD-ES cell line. Described as above. The following applies: Ewing’s sarcoma. It counts as cell-based.
Description: as §1, §2

As to “Mylotarg: approved agent, known antibody drug conjugate MYLOTARG”, the IC50 in the assay on OCI-AML-5 cell line was 0.0783 nM; with SKM-1 cell line, 2.24e-10 M; with HNT-34 cell line it was 3.77 nM; with SKNO-1 cell line, 13.4 nM; in the assay with PLB-985 cell line, 7.14 nM; in the assay on OCI-AML-1 cell line it was 0.224 nM. The IC50 in the assay on MV4-11 cell line is 5.32e-11 M; in the assay on HL-60 cell line, 3.26e-10 M; in the assay with OCI-AML-6 cell line, > 20 nM; with AML-193 cell line, > 20 nM; in the assay with MOLM13 cell line, 2.7e-11 M; in the assay with Kasumi-6 cell line, > 20 nM. Besides, the IC50 in the assay on F-36P cell line was > 20 nM; in the assay on ML-2 cell line it was 5.02e-11 M; in the assay with OCI-AML4 cell line, 2.37e-10 M; in the assay with OCI-AML2 cell line, 3.94e-11 M; with Kopn-8 cell line, 0.687 nM; in assay [1], 0.0011 nM. In addition, the IC50 with EOL-1 cell line came out at 6.87e-11 M.

B1: Ontuxizumab-Compound (Ia) (conjugate, chains of the INN, looked up)
VH: QVQLQESGPGLVRPSQTLSLTCTASGYTFTDYVIHWVKQPPGRGLEWIGYINPYDDDTTYNQKFKGRVTMLVDTSSNTAYLRLSSVTAEDTAVYYCARRGNSYDGYFDYSMDYWGSGTPVTVSS
VL: DIQMTQSPSSLSASVGDRVTITCRASQNVGTAVAWLQQTPGKAPKLLIYSASNRYTGVPSRFSGSGSGTDYTFTISSLQPEDIATYYCQQYTNYPMYTFGQGTKVQIK
modifications: conjugated to Compound (Ia)
Turning to B1, the IC50 in the assay with RD-ES cell line was 0.0273 nM.
